The NIST ThermoML archive (doi:10.1021/je101361u)

Assay: xn = mol fraction of the nth substance listed
Conditions: 101.3 kPa, Liquid

COCCOC [1,2-dimethoxyethane] + ClCCCl
mass density [kg/m3]
Conditions | 308.15 K | 313.15 K | 318.15 K | 323.15 K
x2 = 0.0251 | – | 852.25 | 846.59 | 840.89
x2 = 0.05 | – | 859.77 | 854.09 | 848.36
x2 = 0.0501 | – | 859.82 | 854.13 | 848.39
x2 = 0.075 | – | 867.42 | 861.7 | 855.93
x2 = 0.1 | – | 875.11 | 869.35 | 863.55
x2 = 0.1552 | – | 892.54 | 886.71 | 880.84
x2 = 0.2001 | – | 906.96 | 901.08 | –
x2 = 0.2501 | – | 923.37 | 917.42 | –
x2 = 0.3002 | – | 940.18 | 934.15 | –
x2 = 0.35 | – | 957.24 | 951.14 | –
x2 = 0.4001 | – | 974.8 | 968.62 | –
x2 = 0.45 | – | 992.71 | 986.46 | –
x2 = 0.5 | 1017.36 | 1011.06 | 1004.73 | –
x2 = 0.5001 | 1017.45 | 1011.16 | 1004.83 | –
x2 = 0.55 | 1036.29 | 1029.91 | 1023.49 | –
x2 = 0.6001 | 1055.67 | 1049.2 | 1042.69 | –
x2 = 0.65 | 1075.5 | 1068.94 | 1062.34 | –
x2 = 0.7 | 1095.88 | 1089.21 | 1082.51 | –
x2 = 0.75 | 1116.88 | 1110.11 | 1103.31 | –
x2 = 0.8 | 1138.31 | 1131.44 | 1124.52 | –
x2 = 0.85 | 1160.61 | 1153.62 | 1146.58 | –
x2 = 0.9 | 1183.44 | 1176.32 | 1169.16 | –
x2 = 0.925 | 1195 | 1187.82 | 1180.61 | –
x2 = 0.975 | 1218.9 | 1211.59 | 1204.25 | –
